Publication PMC9299988, “Substrate‐Inspired Fragment Merging and Growing Affords Efficacious LasB Inhibitors” (Angewandte Chemie (International Ed. in English), 2021)
Like-named read-outs stand apart in the source and are kept apart here.

Experiments:
[1] = biological target: T1, LasB (Pseudomonas aeruginosa, UniProt Q02RJ6); test: biochemical; assay type: biochemical
T1 construct: The purification of LasB from P. aeruginosa P14 supernatant and the; made in house; host or cells: P. aeruginosa PA14 (native producer), culture supernatant
T1 sequence (Q02RJ6 198-498): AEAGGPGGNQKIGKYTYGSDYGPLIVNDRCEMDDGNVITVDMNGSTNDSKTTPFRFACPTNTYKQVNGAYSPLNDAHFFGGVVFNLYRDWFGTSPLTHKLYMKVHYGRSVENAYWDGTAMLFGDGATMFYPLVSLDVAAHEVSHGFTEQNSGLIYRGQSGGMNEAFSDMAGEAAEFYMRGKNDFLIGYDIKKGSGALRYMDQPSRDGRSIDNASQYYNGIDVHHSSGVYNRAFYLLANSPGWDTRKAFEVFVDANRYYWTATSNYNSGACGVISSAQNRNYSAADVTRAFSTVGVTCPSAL
Method: LasB Inhibition Assay. […]
(§1) Preparation of P. aeruginosa supernatant and LasB activity evaluation. A culture of a single colony of PA14 was grown in lysogeny broth medium at 28 °C with constant shaking at 130 rpm for 3 days. Then, the culture was centrifuged at 4 °C, 5000 rpm for 30 minutes. Finally, the supernatant was passed through a membrane filter of […] to sterilize it. The supernatant

[2] = system: P. aeruginosa PA14; test: Minimum inhibitory concentration (MIC) assay; assay type: cell-based, Pseudomonas aeruginosa
[3] = biological target: T2, MMP-1 (Homo sapiens, UniProt P03956); test: Inhibition assay with human off-target MMP-1; assay type: biochemical; details: Table S2; concentration not given
T2 sequence (P03956 100-469): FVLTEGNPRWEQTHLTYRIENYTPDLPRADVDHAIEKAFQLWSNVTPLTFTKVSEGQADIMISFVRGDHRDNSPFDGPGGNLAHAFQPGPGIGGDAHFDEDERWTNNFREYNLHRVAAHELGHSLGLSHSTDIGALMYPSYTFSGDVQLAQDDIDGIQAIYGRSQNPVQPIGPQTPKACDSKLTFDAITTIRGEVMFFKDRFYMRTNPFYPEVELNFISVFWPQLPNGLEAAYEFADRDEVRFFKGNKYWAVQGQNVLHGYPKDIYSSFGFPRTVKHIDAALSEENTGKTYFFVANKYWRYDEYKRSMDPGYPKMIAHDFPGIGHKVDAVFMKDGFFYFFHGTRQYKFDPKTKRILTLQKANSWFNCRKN

[4] = biological target: T3, MMP-2 (Homo sapiens, UniProt P08253); test: Inhibition assay with human off-target MMP-2; assay type: biochemical; details: Table S2; concentration not given
T3 sequence (P08253 110-660): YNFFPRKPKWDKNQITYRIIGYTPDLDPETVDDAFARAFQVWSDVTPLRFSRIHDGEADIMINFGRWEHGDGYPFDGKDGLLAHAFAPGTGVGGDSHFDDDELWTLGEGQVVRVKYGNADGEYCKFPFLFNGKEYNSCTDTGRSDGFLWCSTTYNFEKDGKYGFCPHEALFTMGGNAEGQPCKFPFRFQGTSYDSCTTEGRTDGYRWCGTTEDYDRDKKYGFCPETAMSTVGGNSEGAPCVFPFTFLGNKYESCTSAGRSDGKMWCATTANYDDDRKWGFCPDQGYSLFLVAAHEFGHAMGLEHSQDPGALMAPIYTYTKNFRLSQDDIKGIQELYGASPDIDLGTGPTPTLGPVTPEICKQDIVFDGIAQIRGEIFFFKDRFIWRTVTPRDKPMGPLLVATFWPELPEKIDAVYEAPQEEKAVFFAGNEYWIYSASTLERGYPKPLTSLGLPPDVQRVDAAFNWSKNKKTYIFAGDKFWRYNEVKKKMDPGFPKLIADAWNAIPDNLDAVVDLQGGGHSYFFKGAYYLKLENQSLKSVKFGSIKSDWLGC

[5] = biological target: MMP-3 (Homo sapiens, UniProt P08254); test: Inhibition assay with human off-target MMP-3; assay type: biochemical; details: Table S2; concentration not given
Sequence of MMP-3 (P08254 100-477): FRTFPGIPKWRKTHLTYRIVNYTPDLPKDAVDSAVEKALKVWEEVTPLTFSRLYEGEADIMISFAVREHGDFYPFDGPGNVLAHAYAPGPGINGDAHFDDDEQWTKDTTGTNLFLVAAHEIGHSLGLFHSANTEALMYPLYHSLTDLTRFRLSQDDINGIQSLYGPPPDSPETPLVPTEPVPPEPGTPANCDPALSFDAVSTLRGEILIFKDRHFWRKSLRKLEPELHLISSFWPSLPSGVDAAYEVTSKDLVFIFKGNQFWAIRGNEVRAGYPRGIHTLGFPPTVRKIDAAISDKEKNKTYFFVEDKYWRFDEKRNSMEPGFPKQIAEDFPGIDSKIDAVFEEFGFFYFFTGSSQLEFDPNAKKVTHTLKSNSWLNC

[6] = biological target: T4, MMP-7 (Homo sapiens, UniProt P09237); test: Inhibition assay with human off-target MMP-7; assay type: biochemical; details: Table S2; concentration not given
T4 sequence (P09237 95-267): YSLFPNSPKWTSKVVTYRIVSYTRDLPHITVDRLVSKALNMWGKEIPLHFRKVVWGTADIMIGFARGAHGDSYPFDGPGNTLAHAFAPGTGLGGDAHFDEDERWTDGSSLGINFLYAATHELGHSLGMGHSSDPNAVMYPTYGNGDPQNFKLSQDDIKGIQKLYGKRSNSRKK

[7] = biological target: MMP-8 (Homo sapiens, UniProt P22894); test: Inhibition assay with human off-target MMP-8; assay type: biochemical; details: Table S2; concentration not given
Sequence of MMP-8 (P22894 101-467): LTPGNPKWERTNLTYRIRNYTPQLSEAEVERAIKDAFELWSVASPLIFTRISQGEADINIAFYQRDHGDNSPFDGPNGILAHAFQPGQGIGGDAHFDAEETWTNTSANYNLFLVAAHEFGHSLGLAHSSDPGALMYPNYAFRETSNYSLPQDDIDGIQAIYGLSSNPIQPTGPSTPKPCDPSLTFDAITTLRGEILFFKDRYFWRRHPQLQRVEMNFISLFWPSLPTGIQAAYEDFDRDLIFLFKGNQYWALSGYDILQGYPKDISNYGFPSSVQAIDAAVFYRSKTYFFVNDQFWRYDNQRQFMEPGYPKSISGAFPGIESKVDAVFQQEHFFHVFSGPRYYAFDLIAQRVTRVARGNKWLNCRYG

[8] = biological target: MMP-14 (Homo sapiens, UniProt P50281); test: Inhibition assay with human off-target MMP-14; assay type: biochemical; details: Table S2; concentration not given
[9] = biological target: HDAC-3 (Homo sapiens, UniProt O15379); test: Inhibition assay with human off-target HDAC-3; assay type: biochemical; details: Table S2
Sequence of HDAC-3 (O15379 whole entry): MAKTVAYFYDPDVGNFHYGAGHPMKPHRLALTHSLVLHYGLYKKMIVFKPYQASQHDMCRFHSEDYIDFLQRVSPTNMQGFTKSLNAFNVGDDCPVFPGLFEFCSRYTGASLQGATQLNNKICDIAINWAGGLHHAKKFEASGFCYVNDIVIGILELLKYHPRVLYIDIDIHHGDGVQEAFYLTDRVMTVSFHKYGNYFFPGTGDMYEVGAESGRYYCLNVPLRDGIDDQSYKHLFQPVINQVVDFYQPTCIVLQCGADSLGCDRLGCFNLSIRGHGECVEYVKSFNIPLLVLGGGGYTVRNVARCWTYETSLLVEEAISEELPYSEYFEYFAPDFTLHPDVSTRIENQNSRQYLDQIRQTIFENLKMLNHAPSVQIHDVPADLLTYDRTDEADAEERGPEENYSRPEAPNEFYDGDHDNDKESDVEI
Sequence of HDAC-3 (Q9Y618 395-489 partner limits assumed): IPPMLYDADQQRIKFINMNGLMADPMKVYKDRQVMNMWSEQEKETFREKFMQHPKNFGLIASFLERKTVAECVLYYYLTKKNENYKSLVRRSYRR

[10] = biological target: T5, HDAC-8 (Homo sapiens, UniProt Q9BY41); test: Inhibition assay with human off-target HDAC-8; assay type: biochemical; details: Table S2
T5 sequence (Q9BY41 1-377): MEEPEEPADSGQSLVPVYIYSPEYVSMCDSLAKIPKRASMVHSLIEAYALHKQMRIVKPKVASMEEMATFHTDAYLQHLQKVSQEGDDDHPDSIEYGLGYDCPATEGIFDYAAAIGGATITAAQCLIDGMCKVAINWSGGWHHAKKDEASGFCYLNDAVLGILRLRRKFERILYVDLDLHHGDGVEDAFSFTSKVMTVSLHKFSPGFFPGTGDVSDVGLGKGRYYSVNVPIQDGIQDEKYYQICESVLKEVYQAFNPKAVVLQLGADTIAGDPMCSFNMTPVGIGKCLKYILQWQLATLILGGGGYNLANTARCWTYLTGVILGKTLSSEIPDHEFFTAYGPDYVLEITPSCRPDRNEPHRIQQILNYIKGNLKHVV

[11] = Cytotoxicity assay, A549; details: human, A549 cells
[12] = Cytotoxicity assay, HepG2; details: human, HepG2 cells
[13] = Cytotoxicity assay, HEK 293; details: human, HEK 293 cells
[14] = biological target: ADAM17 (Homo sapiens, UniProt P78536); test: Inhibition assay with human off-target ADAM17 (TACE); assay type: biochemical
Sequence of ADAM17 (P78536 215-824): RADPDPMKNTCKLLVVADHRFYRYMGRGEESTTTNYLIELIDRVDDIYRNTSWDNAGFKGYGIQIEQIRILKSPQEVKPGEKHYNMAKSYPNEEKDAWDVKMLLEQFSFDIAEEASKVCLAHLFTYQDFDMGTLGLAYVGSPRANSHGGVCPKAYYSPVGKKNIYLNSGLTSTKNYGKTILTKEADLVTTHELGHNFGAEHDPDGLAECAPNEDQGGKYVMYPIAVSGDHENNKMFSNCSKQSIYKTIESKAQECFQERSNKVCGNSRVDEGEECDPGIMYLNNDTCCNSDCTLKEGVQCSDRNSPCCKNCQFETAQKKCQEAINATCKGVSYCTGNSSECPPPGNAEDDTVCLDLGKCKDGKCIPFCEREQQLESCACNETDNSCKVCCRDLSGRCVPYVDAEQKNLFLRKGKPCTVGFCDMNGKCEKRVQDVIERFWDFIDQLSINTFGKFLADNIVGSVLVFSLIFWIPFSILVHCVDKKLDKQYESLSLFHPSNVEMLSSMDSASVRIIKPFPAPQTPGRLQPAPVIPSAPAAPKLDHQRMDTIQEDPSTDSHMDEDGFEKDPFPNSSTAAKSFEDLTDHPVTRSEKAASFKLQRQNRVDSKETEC

[15] = system: Galleria mellonella larvae; test: Galleria mellonella larvae survival model with P. aeruginosa PA14 supernatant; assay type: in vivo; details: for survival of larvae: 0.25 nmol compound injected with PA14 supernatant, three days of incubation, compared to PBS injected larvae; for survival of larvae, compound in PBS: compound in PBS without PA14 supernatant
Method: We next analyzed the antivirulence activity of LasB inhibitors in vivo, using a simple model based on G. mellonella larvae. […] We injected the larvae with the supernatant (s.n.) of P. aeruginosa PA14 with or without 0.25 nmol of either 4 or 7 g, incubated them for three days and recorded the survival once per day (Figure 3). […] Treatment of larvae with 0.25 nmol of compound 7 g increased survival up to 60% compared to PBS injected larvae.
PA14 s.n. was also present during compound treatment. PBS served as a negative control (dot dash). […]
as §1

[16] = biological target: T1, LasB; test: Calculation of Ligand Efficiency (LE) and Lipophilic Ligand Efficiency (LLE); details: calculated
From the text: Although structure‐guided exploration of the N‐aryl ring substitution provided us with a strong starting point for lead optimization, systematic variation of the substituent in the α‐position (R^1) should be considered to exploit the lipophilicity of the S2′ pocket. In addition, compound 7 g only occupies a small fraction (approx. 24%) of the total predicted binding pocket volume, leaving the S2′ pocket largely untouched (Figure S4). Therefore, extension of the thiol group in that direction should allow additional ligand‐protein interactions, leading to a further improved inhibitory potency. […]

[17] = biological target: T1, LasB; details: read-out: IC50 (known LasB inhibitors); Figure 1, known LasB inhibitors; cited from earlier work
[18] = in vitro; details: human
[19] = in vitro; details: human; remark: listed apart in the source
[20] = in vitro; details: human; remark: listed apart in the source
[21] = system: human hepatoma cell line (HepG2); test: Cytotoxicity assay, HepG2; details: HepG2, at 100 µM
[22] = system: human embryonic kidney (HEK) 293 cells; test: Cytotoxicity assay, HEK 293; details: HEK cells, at 100 µM

With `O=C(Nc1ccc(Cl)c(Cl)c1)C(S)CC1CCCCC1` (stereo not shown) [7 b] as the compound, how does the IC50 [1] read?
The IC50 was 12 ± 3 µM.

Which IC50 [1] does the source give for `O=C(Nc1ccc(Cl)c(Cl)c1)C(S)CC1CC1` (stereo not shown) [7 c] here?
The IC50 was 6.3 ± 1.2 µM.

For `O=C(Nc1ccccc1)C(S)Cc1ccccc1` (stereo not shown) [7 d], which “fold improvement in IC50 value compared to 7 a” value ([1]; versus compound 7 a) is on record?
Its value is “two‐fold”.

And the MIC [2]?
Its MIC is greater than 100 µM.

What about the MIC ([2]; Pseudomonas aeruginosa) of the same compound?
Its MIC is greater than 100 µM.

What about the “inhibition of MMP-1” value [3] of the same compound?
The value was “n.i. (n.i. = <10% inhibition)”.

What about the “inhibition of MMP-2” value [4] of the same compound?
The value was “n.i. (n.i. = <10% inhibition)”.

And the “inhibition of MMP-3” value [5]?
The value was “n.i. (n.i. = <10% inhibition)”.

What about the “inhibition of MMP-7” value [6] of the same compound?
The value was “n.i. (n.i. = <10% inhibition)”.

What about the “inhibition of MMP-8” value [7] of the same compound?
Its value is 26 ± 4%.

What about the “inhibition of MMP-14” value [8] of the same compound?
The value was “n.i. (n.i. = <10% inhibition)”.

What about the IC50 [9] of the same compound?
The IC50 was greater than 100 µM.

And the IC50 [10]?
Its IC50 is greater than 100 µM.

What about the IC50 [11] of the same compound?
Its IC50 is greater than 100 µM.

And the IC50 [12]?
Its IC50 is greater than 100 µM.

And the IC50 [13]?
Its IC50 is greater than 100 µM.

For `Cc1ccccc1NC(=O)C(S)Cc1ccccc1` (stereo not shown) [7 e], which IC50 [1] is on record?
Its IC50 is 2.4 ± 1 µM.

For `Cc1cccc(NC(=O)C(S)Cc2ccccc2)c1` (stereo not shown) [7 f], which IC50 [1] is on record?
Its IC50 is 1 ± 0.4 µM.

Which results are given for `Cc1ccc(NC(=O)C(S)Cc2ccccc2)cc1` (stereo not shown) [7 g]?
IC50 [1]: 0.48 ± 0.04 µM; MIC ([2]; Pseudomonas aeruginosa): > 100 µM; IC50 ([14]; Table S2, read-out: IC50 ADAM17): 4.8 ± 1.5 µM; survival of larvae [15]: up to 60%; survival of larvae, compound in PBS [15]: 100%; Ligand Efficiency (LE) [16]: 0.43; Lipophilic Ligand Efficiency (LLE) [16]: 2.37; IC50 [11]: > 100 µM; IC50 [12]: > 100 µM; IC50 [13]: > 100 µM

For `CC(C)C[C@H](NP(=O)(O)O[C@@H]1O[C@@H](C)[C@H](O)[C@@H](O)[C@H]1O)C(=O)N[C@@H](Cc1c[nH]c2ccccc12)C(=O)O` [Compound 1, phosphoramidon], which IC50 [17] is on record?
The IC50 was 0.207 µM.

For `O=C(CS)Nc1ccc(Cl)c(Cl)c1` [Compound 4, N‐(3,4‐dichlorophenyl) mercaptoacetamide], which MIC ([2]; Pseudomonas aeruginosa) is on record?
Its MIC is greater than 100 µM.

And the “inhibition of MMP-1” value [3]?
The value was “n.i. (n.i. = <10% inhibition)”.

What about the “inhibition of MMP-2” value [4] of the same compound?
Its value is “n.i. (n.i. = <10% inhibition)”.

What about the “inhibition of MMP-3” value [5] of the same compound?
The value was “n.i. (n.i. = <10% inhibition)”.

What about the “inhibition of MMP-7” value [6] of the same compound?
The value was “n.i. (n.i. = <10% inhibition)”.

What about the “inhibition of MMP-8” value [7] of the same compound?
The value was “n.i. (n.i. = <10% inhibition)”.

And the “inhibition of MMP-14” value [8]?
The value was “n.i. (n.i. = <10% inhibition)”.

And the IC50 [14]?
The IC50 was greater than 100 µM.

And the IC50 [9]?
Its IC50 is greater than 100 µM.

What about the IC50 [10] of the same compound?
Its IC50 is greater than 100 µM.

And the survival of larvae [15]?
Its survival of larvae is “virtually no improvement in survival”.

What about the “survival of larvae, compound in PBS” value [15] of the same compound?
Its value is 100%.

What about the IC50 [18] of the same compound?
The IC50 was greater than 100 µM.

And the IC50 [19]?
Its IC50 is greater than 100 µM.

And the IC50 [20]?
Its IC50 is greater than 100 µM.

What about the reduction in viability [21] of the same compound?
Its reduction in viability is 23±3%.

And the reduction in viability [22]?
Its reduction in viability is 33±10%.
